Experimental data reported in PubChem BioAssay (NCI).
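In this assay, cells in 96-well plates receive the compound at five concentrations for 48 hours. Endpoints are linearly interpolated between the surrounding concentrations. GI50: concentration for 50% inhibition of growth. TGI: concentration producing complete growth inhibition.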

What was measured:
Test in all cases: NCI anticancer screen, dose series, 48 h
786-0 renal = tested on: 786-0 renal
A498 renal = tested on: A498 renal
A549 NSCLC = tested on: A549 NSCLC
ACHN renal = tested on: ACHN renal
BT-549 breast = tested on: BT-549 breast
CAKI-1 renal = tested on: CAKI-1 renal
CCRF-CEM leukemia = tested on: CCRF-CEM leukemia
COLO 205 colon = tested on: COLO 205 colon
DU-145 prostate = tested on: DU-145 prostate
HCC-2998 colon = tested on: HCC-2998 colon
HCT-116 colon = tested on: HCT-116 colon
HCT-15 colon = tested on: HCT-15 colon
HL-60(TB) leukemia = tested on: HL-60(TB) leukemia
HOP-62 NSCLC = tested on: HOP-62 NSCLC
HS 578T breast = tested on: HS 578T breast
HT29 colon = tested on: HT29 colon
IGROV1 ovarian = tested on: IGROV1 ovarian
K-562 leukemia = tested on: K-562 leukemia
KM12 colon = tested on: KM12 colon
LOX IMVI melanoma = tested on: LOX IMVI melanoma
M14 melanoma = tested on: M14 melanoma
MCF7 breast = tested on: MCF7 breast
MDA-MB-231 breast = tested on: MDA-MB-231 breast
MDA-MB-435 = tested on: MDA-MB-435
MOLT-4 leukemia = tested on: MOLT-4 leukemia
NCI-H226 lung = tested on: NCI-H226 lung
NCI-H460 lung = tested on: NCI-H460 lung
NCI-H522 lung = tested on: NCI-H522 lung
NCI/ADR-RES ovarian = tested on: NCI/ADR-RES ovarian
OVCAR-3 ovarian = tested on: OVCAR-3 ovarian
OVCAR-4 ovarian = tested on: OVCAR-4 ovarian
OVCAR-5 ovarian = tested on: OVCAR-5 ovarian
OVCAR-8 ovarian = tested on: OVCAR-8 ovarian
PC-3 prostate = tested on: PC-3 prostate
RPMI-8226 leukemia = tested on: RPMI-8226 leukemia
RXF 393 renal = tested on: RXF 393 renal
SF-268 CNS = tested on: SF-268 CNS
SF-295 CNS = tested on: SF-295 CNS
SF-539 CNS = tested on: SF-539 CNS
SK-MEL-2 melanoma = tested on: SK-MEL-2 melanoma
SK-MEL-28 melanoma = tested on: SK-MEL-28 melanoma
SK-MEL-5 melanoma = tested on: SK-MEL-5 melanoma
SK-OV-3 ovarian = tested on: SK-OV-3 ovarian
SN12C renal = tested on: SN12C renal
SNB-19 CNS = tested on: SNB-19 CNS
SNB-75 CNS = tested on: SNB-75 CNS
SR leukemia = tested on: SR leukemia
SW-620 colon = tested on: SW-620 colon
U251 CNS = tested on: U251 CNS
UACC-257 melanoma = tested on: UACC-257 melanoma
UACC-62 melanoma = tested on: UACC-62 melanoma
UO-31 renal = tested on: UO-31 renal
EKVX NSCLC = tested on: EKVX NSCLC
HOP-92 NSCLC = tested on: HOP-92 NSCLC
NCI-H23 lung = tested on: NCI-H23 lung
TK-10 renal = tested on: TK-10 renal

CC1(C)N=C(N)N=C(N)N1c1cccc(/C=C/C=C/c2cccc([N+](=O)[O-])c2)c1
GI50 (786-0 renal): 21.3 µM
TGI (786-0 renal): 52.9 µM
GI50 (A498 renal): 13 µM
TGI (A498 renal): 39.3 µM
GI50 (A549 NSCLC): 3.9 µM
TGI (A549 NSCLC): 24 µM
GI50 (ACHN renal): 75.7 µM
TGI (ACHN renal): > 100 µM
GI50 (BT-549 breast): 6.91 µM
TGI (BT-549 breast): 23.8 µM
GI50 (CAKI-1 renal): 75.3 µM
TGI (CAKI-1 renal): > 100 µM
GI50 (CCRF-CEM leukemia): 3.61 µM
TGI (CCRF-CEM leukemia): 18.9 µM
GI50 (COLO 205 colon): 4.4 µM
TGI (COLO 205 colon): 19.8 µM
GI50 (DU-145 prostate): 7.5 µM
TGI (DU-145 prostate): 20.2 µM
GI50 (HCC-2998 colon): 4.71 µM
TGI (HCC-2998 colon): 18.5 µM
GI50 (HCT-116 colon): 3.16 µM
TGI (HCT-116 colon): 30.4 µM
GI50 (HCT-15 colon): 98.1 µM
TGI (HCT-15 colon): > 100 µM
GI50 (HL-60(TB) leukemia): 2.55 µM
TGI (HL-60(TB) leukemia): 13 µM
GI50 (HOP-62 NSCLC): 18.1 µM
TGI (HOP-62 NSCLC): 35.9 µM
GI50 (HS 578T breast): 12.9 µM
TGI (HS 578T breast): 34.7 µM
GI50 (HT29 colon): 1.59 µM
TGI (HT29 colon): 14.7 µM
GI50 (IGROV1 ovarian): 1.18 µM
TGI (IGROV1 ovarian): 13.7 µM
GI50 (K-562 leukemia): 3.29 µM
TGI (K-562 leukemia): 19.6 µM
GI50 (KM12 colon): 2.59 µM
TGI (KM12 colon): 15.5 µM
GI50 (LOX IMVI melanoma): 5.02 µM
TGI (LOX IMVI melanoma): 19.2 µM
GI50 (M14 melanoma): 13.6 µM
TGI (M14 melanoma): 50.1 µM
GI50 (MCF7 breast): 5.57 µM
TGI (MCF7 breast): 22.4 µM
GI50 (MDA-MB-231 breast): 10.3 µM
TGI (MDA-MB-231 breast): 24.4 µM
GI50 (MDA-MB-435): 2.68 µM
TGI (MDA-MB-435): 15.2 µM
GI50 (MOLT-4 leukemia): 5.9 µM
TGI (MOLT-4 leukemia): 23.6 µM
GI50 (NCI-H226 lung): 10.9 µM
TGI (NCI-H226 lung): 34.1 µM
GI50 (NCI-H460 lung): 2.85 µM
TGI (NCI-H460 lung): 15.3 µM
GI50 (NCI-H522 lung): 4.72 µM
TGI (NCI-H522 lung): 20.1 µM
GI50 (NCI/ADR-RES ovarian): > 100 µM
TGI (NCI/ADR-RES ovarian): > 100 µM
GI50 (OVCAR-3 ovarian): 1.89 µM
TGI (OVCAR-3 ovarian): 13.1 µM
GI50 (OVCAR-4 ovarian): 5.54 µM
TGI (OVCAR-4 ovarian): 22.5 µM
GI50 (OVCAR-5 ovarian): 10.5 µM
TGI (OVCAR-5 ovarian): 42.5 µM
GI50 (OVCAR-8 ovarian): 13.8 µM
TGI (OVCAR-8 ovarian): 30 µM
GI50 (PC-3 prostate): 0.448 µM
TGI (PC-3 prostate): 11.8 µM
GI50 (RPMI-8226 leukemia): 1.31 µM
TGI (RPMI-8226 leukemia): 16.3 µM
GI50 (RXF 393 renal): 17.4 µM
TGI (RXF 393 renal): > 100 µM
GI50 (SF-268 CNS): 3.64 µM
TGI (SF-268 CNS): 17.4 µM
GI50 (SF-295 CNS): 10.3 µM
TGI (SF-295 CNS): 28.3 µM
GI50 (SF-539 CNS): 4.43 µM
TGI (SF-539 CNS): 17.6 µM
GI50 (SK-MEL-2 melanoma): 13.4 µM
TGI (SK-MEL-2 melanoma): 28.5 µM
GI50 (SK-MEL-28 melanoma): 7.1 µM
TGI (SK-MEL-28 melanoma): 20.5 µM
GI50 (SK-MEL-5 melanoma): 2.96 µM
TGI (SK-MEL-5 melanoma): 12.5 µM
GI50 (SK-OV-3 ovarian): 32.1 µM
TGI (SK-OV-3 ovarian): > 100 µM
GI50 (SN12C renal): 5.3 µM
TGI (SN12C renal): 20.1 µM
GI50 (SNB-19 CNS): 6.04 µM
TGI (SNB-19 CNS): 22.5 µM
GI50 (SNB-75 CNS): 6.88 µM
TGI (SNB-75 CNS): 21.5 µM
GI50 (SR leukemia): 4.71 µM
TGI (SR leukemia): 29.2 µM
GI50 (SW-620 colon): 2.56 µM
TGI (SW-620 colon): 18.8 µM
GI50 (U251 CNS): 0.801 µM
TGI (U251 CNS): 13.6 µM
GI50 (UACC-257 melanoma): 5.42 µM
TGI (UACC-257 melanoma): 20.2 µM
GI50 (UACC-62 melanoma): 3.74 µM
TGI (UACC-62 melanoma): 17.9 µM
GI50 (UO-31 renal): 55.2 µM
TGI (UO-31 renal): > 100 µM

O=c1c(Cl)nnc2sc3ccccc3n12
GI50 (786-0 renal): 64.7 µM
TGI (786-0 renal): > 100 µM
GI50 (A498 renal): > 100 µM
TGI (A498 renal): > 100 µM
GI50 (A549 NSCLC): 39.7 µM
TGI (A549 NSCLC): > 100 µM
GI50 (ACHN renal): 2.3 µM
TGI (ACHN renal): 9.92 µM
GI50 (BT-549 breast): 64.9 µM
TGI (BT-549 breast): > 100 µM
GI50 (CAKI-1 renal): 0.813 µM
TGI (CAKI-1 renal): 6.9 µM
GI50 (COLO 205 colon): 47 µM
TGI (COLO 205 colon): > 100 µM
GI50 (DU-145 prostate): 57 µM
TGI (DU-145 prostate): > 100 µM
GI50 (EKVX NSCLC): 24.2 µM
TGI (EKVX NSCLC): > 100 µM
GI50 (HCT-116 colon): 20.4 µM
TGI (HCT-116 colon): 68.3 µM
GI50 (HCT-15 colon): 16.5 µM
TGI (HCT-15 colon): 54.3 µM
GI50 (HL-60(TB) leukemia): 18.3 µM
TGI (HL-60(TB) leukemia): > 100 µM
GI50 (HOP-62 NSCLC): 67.4 µM
TGI (HOP-62 NSCLC): > 100 µM
GI50 (HOP-92 NSCLC): 20.6 µM
TGI (HOP-92 NSCLC): > 100 µM
GI50 (HS 578T breast): 85.4 µM
TGI (HS 578T breast): > 100 µM
GI50 (HT29 colon): 53.7 µM
TGI (HT29 colon): > 100 µM
GI50 (IGROV1 ovarian): 31.9 µM
TGI (IGROV1 ovarian): > 100 µM
GI50 (K-562 leukemia): 26 µM
TGI (K-562 leukemia): > 100 µM
GI50 (KM12 colon): 32.3 µM
TGI (KM12 colon): > 100 µM
GI50 (LOX IMVI melanoma): 30.5 µM
TGI (LOX IMVI melanoma): 64.5 µM
GI50 (M14 melanoma): 22.2 µM
TGI (M14 melanoma): 91.9 µM
GI50 (MCF7 breast): 33.6 µM
TGI (MCF7 breast): > 100 µM
GI50 (MDA-MB-231 breast): 14.2 µM
TGI (MDA-MB-231 breast): > 100 µM
GI50 (MDA-MB-435): 42 µM
TGI (MDA-MB-435): > 100 µM
GI50 (MOLT-4 leukemia): 19.6 µM
TGI (MOLT-4 leukemia): > 100 µM
GI50 (NCI-H226 lung): 43.1 µM
TGI (NCI-H226 lung): > 100 µM
GI50 (NCI-H23 lung): 25.2 µM
TGI (NCI-H23 lung): > 100 µM
GI50 (NCI-H460 lung): 37.7 µM
TGI (NCI-H460 lung): > 100 µM
GI50 (NCI-H522 lung): > 100 µM
TGI (NCI-H522 lung): > 100 µM
GI50 (NCI/ADR-RES ovarian): 13.3 µM
TGI (NCI/ADR-RES ovarian): 41.9 µM
GI50 (OVCAR-3 ovarian): 34.4 µM
TGI (OVCAR-3 ovarian): > 100 µM
GI50 (OVCAR-4 ovarian): 46.9 µM
TGI (OVCAR-4 ovarian): > 100 µM
GI50 (OVCAR-5 ovarian): 54.1 µM
TGI (OVCAR-5 ovarian): > 100 µM
GI50 (OVCAR-8 ovarian): 40.8 µM
TGI (OVCAR-8 ovarian): > 100 µM
GI50 (PC-3 prostate): 47.8 µM
TGI (PC-3 prostate): > 100 µM
GI50 (RPMI-8226 leukemia): 27.9 µM
TGI (RPMI-8226 leukemia): > 100 µM
GI50 (RXF 393 renal): 27.8 µM
TGI (RXF 393 renal): 81.9 µM
GI50 (SF-268 CNS): 51.1 µM
TGI (SF-268 CNS): > 100 µM
GI50 (SF-295 CNS): 45.6 µM
TGI (SF-295 CNS): > 100 µM
GI50 (SF-539 CNS): 37.5 µM
TGI (SF-539 CNS): > 100 µM
GI50 (SK-MEL-2 melanoma): > 100 µM
TGI (SK-MEL-2 melanoma): > 100 µM
GI50 (SK-MEL-28 melanoma): 59 µM
TGI (SK-MEL-28 melanoma): > 100 µM
GI50 (SK-MEL-5 melanoma): 37.3 µM
TGI (SK-MEL-5 melanoma): > 100 µM
GI50 (SK-OV-3 ovarian): 59.9 µM
TGI (SK-OV-3 ovarian): > 100 µM
GI50 (SN12C renal): 24.6 µM
TGI (SN12C renal): > 100 µM
GI50 (SNB-19 CNS): 77.5 µM
TGI (SNB-19 CNS): > 100 µM
GI50 (SNB-75 CNS): > 100 µM
TGI (SNB-75 CNS): > 100 µM
GI50 (SR leukemia): 13.1 µM
TGI (SR leukemia): > 100 µM
GI50 (SW-620 colon): 47.7 µM
TGI (SW-620 colon): > 100 µM
GI50 (TK-10 renal): 8.15 µM
TGI (TK-10 renal): 90.7 µM
GI50 (U251 CNS): 30.9 µM
TGI (U251 CNS): 85.3 µM
GI50 (UACC-62 melanoma): 40.8 µM
TGI (UACC-62 melanoma): > 100 µM
